# Source: patent US20050282755A1, “Compositions having antimicrobial activity and uses thereof” (priority 2004, published 2005)
# Non-standard residues stand in square brackets, D forms with d. Residues, ends and D or L forms follow the SMILES beside them. *: point of attachment. d(hArg) = N=C(N)NCCCC[C@@H](N)C(=O)O; Stearoyl = CCCCCCCCCCCCCCCCCC(=O)*; Palmitoyl = CCCCCCCCCCCCCCCC(=O)*; Lauroyl = CCCCCCCCCCCC(=O)*; Octanoyl = CCCCCCCC(=O)*; Hexanoyl = CCCCCC(=O)*
# Key:
# Type in all cases: cell-based
# [1] = tested on: Staphylococcus aureus ATCC 29213; test: MIC, NCCLS M7-A6 broth microdilution, cation-adjusted Mueller Hinton broth (Table 9, no superscript); conditions: ATCC 29213
# How it was run: (§1)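 Broth microdilution in cation-adjusted Mueller Hinton broth with log-phase inoculum at 5×10^5 to 1×10^6 CFU/mL, incubated overnight at 37° C. MIC was the lowest peptide concentration showing no visible turbidity versus the no-peptide control.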
# [2] = tested on: Escherichia coli ATCC 25922; test: MIC, NCCLS M7-A6 broth microdilution (Table 9, no superscript); conditions: ATCC 25922
# How it was run: as §1
# [3] = tested on: Pseudomonas aeruginosa ATCC 27853; test: as above; conditions: ATCC 27853
# How it was run: as §1
# Salmonella dublin (Lane) = test: as above
# How it was run: as §1
# [4] = tested on: Staphylococcus epidermidis ATCC 12228; test: as above; conditions: ATCC 12228
# How it was run: as §1
Structure (SMILES),MIC S. aureus [1] [µg/mL],MIC E. coli [2] [µg/mL],MIC P. aeruginosa [3] [µg/mL],MIC S. dublin (Salmonella dublin (Lane)) [µg/mL],MIC S. epidermidis [4] [µg/mL]
"CCCCCCCC(=O)NCCCC[C@H](NC(=O)[C@H](CCCNC(=N)N)NC(=O)[C@H](CCSC)NC(=O)[C@H](Cc1ccccc1)NC(=O)[C@H](CC(N)=O)NC(=O)[C@H](CCCNC(=N)N)NC(=O)[C@H](C)NC(=O)[C@@H](NC(=O)[C@H](CC(=O)O)NC(=O)[C@H](CCCNC(=N)N)NC(=O)[C@H](Cc1c[nH]c2ccccc12)NC(=O)[C@H](CCCNC(=N)N)NC(=O)[C@H](CO)NC(=O)[C@@H](N)CCCNC(=N)N)C(C)C)C(N)=O [Peptide 184, H2N-RSRWRDVARNFMRK(Octanyl)-NH2] (H-RSRWRDVARNFMRK(Octanoyl)-NH2)",64,16,>64,16,2
"CCCCCC(=O)N[C@H](CCCNC(=N)N)C(=O)N[C@H](CO)C(=O)N[C@H](CCCNC(=N)N)C(=O)N[C@H](Cc1c[nH]c2ccccc12)C(=O)N[C@H](CCCNC(=N)N)C(=O)N[C@H](CC(=O)O)C(=O)N[C@@H](C(=O)N[C@H](C)C(=O)N[C@H](CCCNC(=N)N)C(=O)N[C@H](CC(N)=O)C(=O)N[C@H](Cc1ccccc1)C(=O)N[C@H](CCSC)C(=O)N[C@H](CCCNC(=N)N)C(N)=O)C(C)C [Peptide 206, Hexyl-rsrwrdvarnfmr-NH2] (Hexanoyl-[dR][dS][dR][dW][dR][dD][dV][dA][dR][dN][dF][dM][dR]-NH2)",>64,64,>64,>64,32
"CCCCCCCCCCCCCCCC(=O)NCCCC[C@@H](NC(=O)[C@@H](CCCNC(=N)N)NC(=O)[C@@H](CC(C)C)NC(=O)[C@@H](Cc1ccccc1)NC(=O)[C@@H](CC(N)=O)NC(=O)[C@@H](CCCNC(=N)N)NC(=O)[C@@H](C)NC(=O)[C@H](NC(=O)[C@@H](CC(=O)O)NC(=O)[C@@H](CCCNC(=N)N)NC(=O)[C@@H](Cc1c[nH]c2ccccc12)NC(=O)[C@@H](CCCNC(=N)N)NC(=O)[C@@H](CO)NC(=O)[C@H](N)CCCNC(=N)N)C(C)C)C(N)=O [Peptide 196, H2N-rsrwrdvarnflrk(Palmitoyl)-NH2] (H-[dR][dS][dR][dW][dR][dD][dV][dA][dR][dN][dF][dL][dR][dK](Palmitoyl)-NH2)",64,>64,>64,64,32
"CCCCCCCCCCCC(=O)N[C@H](CCCNC(=N)N)C(=O)N[C@H](CO)C(=O)N[C@H](CCCNC(=N)N)C(=O)N[C@H](Cc1c[nH]c2ccccc12)C(=O)N[C@H](CCCNC(=N)N)C(=O)N[C@H](CC(=O)O)C(=O)N[C@@H](C(=O)N[C@H](C)C(=O)N[C@H](CCCNC(=N)N)C(=O)N[C@H](CC(N)=O)C(=O)N[C@H](CO)C(=O)N[C@H](CCSC)C(=O)N[C@H](CCCNC(=N)N)C(N)=O)C(C)C [Peptide 234, Lauryl-rsrwrdvarnsmr-NH2] (Lauroyl-[dR][dS][dR][dW][dR][dD][dV][dA][dR][dN][dS][dM][dR]-NH2)",64,>64,>64,64,16
"CCCCCCCCCCCC(=O)N[C@H](CCCCNC(=N)N)C(=O)N[C@H](CO)C(=O)N[C@H](CCCCNC(=N)N)C(=O)N[C@H](Cc1c[nH]c2ccccc12)C(=O)N[C@H](CCCCNC(=N)N)C(=O)N[C@H](CC(=O)O)C(=O)N[C@@H](C(=O)N[C@H](C)C(=O)N[C@H](CCCCNC(=N)N)C(=O)N[C@H](CC(N)=O)C(=O)N[C@H](Cc1ccccc1)C(=O)N[C@H](CCSC)C(=O)N[C@H](CCCCNC(=N)N)C(N)=O)C(C)C [Peptide 159, Lauryl-xsxwxdvaxnfmx-NH2 x = D-homoarginine] (Lauroyl-[d(hArg)][dS][d(hArg)][dW][d(hArg)][dD][dV][dA][d(hArg)][dN][dF][dM][d(hArg)]-NH2)",8,16,32,64,8
"CCCCCCCCCCCC(=O)N[C@@H](CO)C(=O)N[C@@H](CCCNC(=N)N)C(=O)N[C@@H](Cc1c[nH]c2ccccc12)C(=O)N[C@@H](CCCNC(=N)N)C(=O)N[C@@H](CC(=O)O)C(=O)N[C@H](C(=O)N[C@@H](C)C(=O)N[C@@H](CCCNC(=N)N)C(=O)N[C@@H](CC(N)=O)C(=O)N[C@@H](Cc1ccccc1)C(=O)N[C@@H](CC(C)C)C(=O)N[C@@H](CCCNC(=N)N)C(N)=O)C(C)C [Peptide 162, Lauryl-SRWRDVARNFLR-NH2] (Lauroyl-SRWRDVARNFLR-NH2)",4,32,>64,16,8

# Results, then the compound that gave them:
MIC S. aureus [1] [µg/mL],MIC E. coli [2] [µg/mL],MIC P. aeruginosa [3] [µg/mL],MIC S. dublin (Salmonella dublin (Lane)) [µg/mL],MIC S. epidermidis [4] [µg/mL],Structure (SMILES)
64,64,>64,32,64,"CCCCCCCCCCCCCCCCCC(=O)N[C@@H](C(=O)N[C@H](CCCNC(=N)N)C(=O)N[C@@H](C(=O)N[C@H](CO)C(=O)N[C@H](CCCNC(=N)N)C(=O)N[C@@H](C(=O)NCC(=O)N[C@H](CCCNC(=N)N)C(=O)N[C@H](CO)C(=O)N[C@H](CCCNC(=N)N)C(=O)N[C@H](Cc1c[nH]c2ccccc12)C(=O)N[C@H](CCCNC(=N)N)C(=O)N[C@H](CC(=O)O)C(=O)N[C@H](Cc1c[nH]c2ccccc12)C(=O)N[C@H](CO)C(=O)N[C@H](CCCNC(=N)N)C(=O)N[C@H](CC(N)=O)C(=O)N[C@H](Cc1ccccc1)C(=O)N[C@H](CCSC)C(=O)N[C@H](CCCNC(=N)N)C(=O)N[C@H](C)C(=O)N[C@H](C)C(=O)N[C@@H](CCCCN)C(N)=O)[C@H](C)O)C(C)C)[C@H](C)O [Peptide 81, Stearyl-trvsrtgrsrwrdwsrnfmraaK-NH2] (Stearoyl-[dT][dR][dV][dS][dR][dT]G[dR][dS][dR][dW][dR][dD][dW][dS][dR][dN][dF][dM][dR][dA][dA]K-NH2)"
32,64,>64,16,8,CCCCCCCCCCCC(=O)N[C@H](C(=O)N[C@@H](CCCNC(=N)N)C(=O)N[C@H](C(=O)N[C@@H](CO)C(=O)N[C@@H](CCCNC(=N)N)C(=O)N[C@H](C(=O)NCC(=O)N[C@@H](CCCNC(=N)N)C(=O)N[C@@H](CO)C(=O)N[C@@H](CCCNC(=N)N)C(=O)N[C@@H](Cc1c[nH]c2ccccc12)C(=O)N[C@@H](CCCNC(=N)N)C(=O)N[C@@H](CC(=O)O)C(=O)N[C@@H](Cc1c[nH]c2ccccc12)C(=O)N[C@@H](CO)C(=O)N[C@@H](CCCNC(=N)N)C(=O)N[C@@H](CC(N)=O)C(=O)N[C@@H](Cc1ccccc1)C(=O)N[C@@H](CCSC)C(=O)N[C@@H](CCCNC(=N)N)C(=O)N[C@@H](CC(C)C)C(=O)N[C@@H](CC(C)C)C(N)=O)[C@@H](C)O)C(C)C)[C@@H](C)O [Peptide 68] (Lauroyl-TRVSRTGRSRWRDWSRNFMRLL-NH2)
